Test results: paper PMC6628379, “Synthesis and Biological Evaluation of Novel Selenyl and Sulfur-L-Dopa Derivatives as Potential Anti-Parkinson’s Disease Agents” (Biomolecules, 2019)
Entries after “also recorded” stand apart in the source; their conditions may differ. Counter-ions that a name gives are not always drawn. Like-named read-outs stand apart in the source and are kept apart here. Where a SMILES comes first, the peptide text is derived from it. [ ]: non-standard residue; d: D form. dDopa = N[C@H](Cc1ccc(O)c(O)c1)C(=O)O; dSeMet = C[Se]CC[C@@H](N)C(=O)O

Legend:
[1] = system: differentiated and H2O2-lesioned SH-SY5Y human neuroblastoma cells; assay: Neuroprotection against H2O2 (MTT); assay type: cell-based; settings: 1 µM
Procedure: (§1) In order to obtain a dopaminergic phenotype, the cells were treated with retinoic acid (RA)/phorbol 12-myristate 13-acetate (PMA) in a medium supplemented with RA (10 μM) for three days; then, the medium was removed and replaced with growth medium containing PMA (80 nM) for three days.
(§2) SP1–6 were dissolved in dimethyl sulfoxide (DMSO). SH-SY5Y cells were plated onto 96-well plates (2700 cell/well). The undifferentiated cells (UC) were grown for 24 h in normal medium and then incubated with seven different compounds at different concentrations (1, 10, and 100 µM). […] After 24 h and 48 h of incubation with or without the compounds, the both sets of cells (UC and DC) were assessed for viability by using a colorimetric assay of 3-[4,5-dimethylthiazol-2-yl]-2,5-diphenyltetrazolium bromide (MTT). The differentiated SH-SY5Y cells were treated with SP6 or LD compounds at 1 µM for 1 h and then exposed to 25, 50, 75, and 150 µM 6-OHDA. After a further 24 h of incubation, the cultures were assessed for viability using an MTT assay. For experiments with the neurotoxin H2O2, the differentiated SH-SY5Y cells were pretreated with SP6 or LD compounds at 1 µM for 24 h and then exposed to 25, 150, and 300 µM H2O2 for a further 24 h. Cell viability was detected using the MTT assay.

[2] = Stability in human plasma; assay type: in vitro ADME; settings: for half-life at 1 mg/mL: human, 80% human plasma with 20% 0.02 M phosphate buffer
Procedure: Human plasma was purchased from 3H Biomedical (Uppsala, Sweden, Europe). SP stock solution was added to a mixture of 80% plasma and 20% of 0.02 M phosphate buffer (pH 7.4) at 37 °C to obtain a final drug concentration of 1 mg/mL. Samples of 100 μL were taken at various times, and 200 μL of MeOH containing 0.01 M HCl was used to stop the enzymatic activity. The samples were centrifuged for 5 min at 5000× g, and the resultant supernatants were filtered and analyzed using HPLC [17].

[3] = BBB-PAMPA (parallel artificial membrane permeability); assay type: in vitro ADME, porcine; settings: for capacity to cross the BBB: BBB-PAMPA; for Papp at 16 h: pig, PAMPA-BBB, 16 h at room temperature, pH 7.4, read-out: Pe; for Classification: PAMPA-BBB class by Pe
Procedure: The blood–brain barrier (BBB)-PAMPA method was used to evaluate the ability of SPs to cross the BBB via passive diffusion. The artificial membrane of each microplate was coated with 5 µL of a porcine polar brain lipid extract mixture (purchased from Avantis Polar Lipids, Alabaster, AL, USA). A total of 150 µL of drug solution was put on the membrane (donor plate) while the bottom plate was filled with 300 µL of buffer solution (acceptor plate). The system was incubated for 16 h at room temperature and then the concentration of the drug in the acceptor plate was evaluated using HPLC. The concentration of the drug at the theoretical equilibrium was determined diluting 500 µM of SP solution with phosphate buffer pH 7.4 and then analyzed using HPLC [18]. Pe (10^−6 cm/s) was calculated as the effective permeability coefficient.

[4] = system: undifferentiated SH-SY5Y human neuroblastoma cells; assay: MTT cell viability, undifferentiated SH-SY5Y cells; assay type: cell-based
[5] = system: differentiated SH-SY5Y neuroblastoma cells; assay: Nitroblue tetrazolium (NBT) assay; assay type: cell-based, human; settings: 1 µM, 24 h incubation
Procedure: The differentiated SH-SY5Y cells were treated with SP6 and/or LD compounds at 1 µM for 24 h, and then 10^6 cells were harvested, centrifuged for 5 min at 1200 rpm, and resuspended in 1 mL 0.9% NaCl, in which NBT (nitro blue tetrazolium chloride, 1 mg/mL) was dissolved. The cells were incubated for 3 h at 37 °C, centrifuged (10 min at 1200 rpm), resuspended in 1 mL dimethyl sulfoxide, and left for 20 min at 37 °C. Then, cells were plated in a 96 well plate (2 x 10^5 cell/well) and read at 550 nm using a scanning multi-well spectrophotometer (Cary50MPR, Varian).

[6] = Octanol/water partition coefficient (logP o/w); assay type: physicochemical; settings: n-octanol / phosphate buffer pH 7.4, HPLC
Procedure: The clogP values were calculated using ACD LogP software package, version 4.55 (Advanced Chemistry Development Inc., Toronto, Canada). Octanol/water partition coefficients (logP o/w) were determined by placing 5 mg of SP into 1 mL of anhydrous n-octanol and an equal volume of phosphate buffer pH 7.4. After vigorously shaking, the resulting mixture was allowed to stand until the complete separation of the two phases. Finally, each phase was filtered and analyzed using HPLC [16].

[7] = system: differentiated SH-SY5Y human neuroblastoma cells; assay: Intracellular ROS measurement (H2DCFDA assay); assay type: cell-based; settings: 1 µM for 24 h, then 25 µM H2O2; 2.5 and 5 min; vs CTRL + 25 µM H2O2
Procedure: SHSY-5Y human neuroblastoma cells were plated (2700 cells/well) into special optics 96-well plates (Corning-Costar, New York, USA) and the cells were treated with retinoic acid (RA)/phorbol 12-myristate 13-acetate (PMA) in order to obtain a dopaminergic phenotype. The differentiated cells were treated with SP1-6 at 1 μM for 24 h and then washed with an imaging buffer (125 mM NaCl, 5 mM KCl, 1.2 mM MgSO4, 5 mM glucose, 25 mM HEPES, and 2 mM CaCl2). A concentration of 10 μM of 2',7'-dichlorofluorescin diacetate (H2DCFDA, Molecular probes, Life Technologies REF […]) was added and the plates were incubated at 37 °C for 30 min. After the incubation, cells were washed with an imaging buffer and treated with 25 μM H2O2 for an immediate fluorescence measurement. Plates were read every 50 s from 0 to 5 min for kinetic data analysis using a microplate reader (Synergy H1, BioTek), with excitation and emission wavelengths at 490 nm and 520 nm, respectively, and analyzed by Gen 5 version 2.08 (BioTek).

[8] = system: RA/PMA-differentiated and 6-OHDA-lesioned SH-SY5Y human neuroblastoma cells; assay: Neuroprotection against 6-OHDA (MTT); assay type: cell-based; settings: 1 µM
Procedure: as §1, §2

[9] = system: differentiated SH-SY5Y human neuroblastoma cells; assay: MTT cell viability, RA/PMA-differentiated SH-SY5Y cells; assay type: cell-based; settings: dopaminergic differentiated cells, 48 h, 100 µM
[10] = 24 h before and during 24 h with 150 µM H2O2
[11] = 24 h before and during 24 h with 300 µM H2O2
[12] = 80% human plasma, 20% 0.02 M phosphate buffer pH 7.4, 37 °C
[13] = pH 7.4, 80% human plasma, 20% 0.02 M phosphate buffer pH 7.4, 37 °C, read-out: t1/2
[14] = pH 7.4, human plasma, read-out: half-life
[15] = 24 h, all tested concentrations (1, 10, 100 µM)

| half-life at 1 mg/mL [2, 13] [h] | Compound | protection against H2O2 toxicity (cell viability) [1, 10] | protection against H2O2 toxicity (cell viability) [1, 11] | Kobs [2, 12] | stability in plasma ([2]; human plasma) | half-life at 1 mg/mL [2, 14] [h] | capacity to cross the BBB [3] | Papp at 16 h [3] [×10⁻⁶ cm/s] | cytotoxic effect [4, 15] | superoxide anion level [5] | logP [6] | antioxidant activity (intracellular ROS) [7] | protection against 6-OHDA toxicity (cell viability) ([8]; 1 h before and during 24 h with 25, 50, 75, 150 µM 6-OHDA) | Classification [3] | t1/2 [2, 12] | cytotoxic effect ([4]; 48 h, 100 µM) | protection against 6-OHDA toxicity (cell viability) ([8]; 1 h before and during 24 h with 150 µM 6-OHDA) | cytotoxic effect [9] |
| --- | --- | --- | --- | --- | --- | --- | --- | --- | --- | --- | --- | --- | --- | --- | --- | --- | --- | --- |
| 1.1 | COC(=O)[C@@H](Cc1ccc(OC(C)=O)c(OC(C)=O)c1)NC(=O)CCSSCCC(=O)N[C@H](Cc1ccc(OC(C)=O)c(OC(C)=O)c1)C(=O)OC [SP2, Methyl (2R)-3-[3,4-bis(acetyloxy)phenyl]-2-{3-[(2-{[(2R)-3-[3,4-bis(acetyloxy)phenyl]-1-methoxy-1-oxopropan-2-yl]carbamoyl}ethyl)disulfanyl]propanamido}propanoate] |  |  | 0.010 (±0.001) min^−1 |  |  |  | 1.82 |  |  | 0.828 |  |  | CNS^− (CNS^− (indicative of low BBB permeation): Pe (10^−6 cm/s) < 2) |  |  |  |  |
| 0.837 | COC(=O)[C@@H](Cc1ccc(OC(C)=O)c(OC(C)=O)c1)NC(=O)[C@@H](CSSC[C@@H](NC(C)=O)C(=O)N[C@H](Cc1ccc(OC(C)=O)c(OC(C)=O)c1)C(=O)OC)NC(C)=O [SP3, Methyl (2R)-3-[3,4-bis(acetyloxy)phenyl]-2-[(2S)-3-{[(2S)-2-{[(2R)-3-[3,4-bis(acetyloxy)phenyl]-1-methoxy-1-oxopropan-2-yl]carbamoyl}-2-acetamidoethyl]disulfanyl}-2-acetamidopropanamido]propanoate] |  |  | 0.014 (±0.003) min^−1 |  |  | possess the capacity to cross the BBB | 3.1 |  |  | 1.07 |  |  |  |  |  |  |  |
|  | COC(=O)[C@@H](Cc1ccc(OC(C)=O)c(OC(C)=O)c1)NC(=O)C[Se][Se]CC(=O)N[C@H](Cc1ccc(OC(C)=O)c(OC(C)=O)c1)C(=O)OC [SP4, Methyl (2R)-3-[3,4-bis(acetyloxy)phenyl]-2-{2-[({[(2R)-3-[3,4-bis(acetyloxy)phenyl]-1-methoxy-1-oxopropan-2-yl]carbamoyl}methyl)diselanyl]acetamido}propanoate] |  |  | Immediate hydrolysis |  |  |  | 0.94 |  |  | -1.17 |  |  | CNS^+ (CNS^+ (indicative of high BBB permeation): Pe (10^−6 cm/s) > 4) | Immediate hydrolysis |  |  |  |
| 0.48 | COC(=O)[C@@H](Cc1ccc(OC(C)=O)c(OC(C)=O)c1)NC(=O)CSSCC(=O)N[C@H](Cc1ccc(OC(C)=O)c(OC(C)=O)c1)C(=O)OC [SP1, Methyl (2R)-3-[3,4-bis(acetyloxy)phenyl]-2-{2-[({[(2R)-3-[3,4-bis(acetyloxy)phenyl]-1-methoxy-1-oxopropan-2-yl]carbamoyl}methyl)disulfanyl]acetamido}propanoate] |  |  | 0.024 (±0.001) min^−1 |  |  |  | 1.15 |  |  | -0.163 |  |  | CNS^− (CNS^− (indicative of low BBB permeation): Pe (10^−6 cm/s) < 2) |  |  |  |  |
|  | N[C@@H](Cc1ccc(O)c(O)c1)C(=O)O [LD, L-p-3,4-dihydroxyphenylalanine hydrochloride, reference compound] | ineffective | ineffective |  |  |  |  | 0.75 | did not show cytotoxic effects | seemed to increase it; also recorded: increase in superoxide anion levels | -2.46 | significant antioxidant activity |  | CNS^− (CNS^− (indicative of low BBB permeation): Pe (10^−6 cm/s) < 2) |  | toxic effect | partially counteract the toxic effect | detrimental effect |

| Compound | half-life at 1 mg/mL [2, 13] [h] | protection against H2O2 toxicity (cell viability) [1, 10] | protection against H2O2 toxicity (cell viability) [1, 11] | Kobs [2, 12] | stability in plasma ([2]; human plasma) | half-life at 1 mg/mL [2, 14] [h] | capacity to cross the BBB [3] | Papp at 16 h [3] [×10⁻⁶ cm/s] | cytotoxic effect [4, 15] | superoxide anion level [5] | logP [6] | antioxidant activity (intracellular ROS) [7] | protection against 6-OHDA toxicity (cell viability) ([8]; 1 h before and during 24 h with 25, 50, 75, 150 µM 6-OHDA) | Classification [3] | t1/2 [2, 12] | cytotoxic effect ([4]; 48 h, 100 µM) | protection against 6-OHDA toxicity (cell viability) ([8]; 1 h before and during 24 h with 150 µM 6-OHDA) | cytotoxic effect [9] |
| --- | --- | --- | --- | --- | --- | --- | --- | --- | --- | --- | --- | --- | --- | --- | --- | --- | --- | --- |
| COC(=O)[C@@H](Cc1ccc(OC(C)=O)c(OC(C)=O)c1)NC(=O)[C@@H](CC[Se]C)NC(C)=O [SP6, Methyl (2R)-3-[3,4-bis(acetyloxy)phenyl]-2-[(2R)-2-acetamido-4-(methylselanyl)butanamido]-propanoate] | 2.89 | effective in countering the toxic effect | partially countered | 0.004 (±0.0001) min^−1 | resistant to the enzymatic hydrolyses by plasma esterases | > 2 | possess the capacity to cross the BBB | 4.5 | did not show cytotoxic effects | significantly reduced the superoxide anion level | 1.44 | significant antioxidant activity; also recorded: able to reduce ROS levels | protective action against the toxin at all tested concentrations |  |  |  |  |  |
| COC(=O)[C@@H](Cc1ccc(O)c(O)c1)NC(=O)[C@@H](CC[Se]C)NC(C)=O [SP5, Methyl (2R)-3-(3,4-dihydroxyphenyl)-2-[(2R)-2-acetamido-4-(methylselanyl)butanamido]-propanoate] (Ac-[dSeMet]-[dDopa]-OMe) | 2.1 |  |  | 0.005 (±0.0001) min^−1 |  | > 2 | unable to completely cross the BBB | 2.3 |  |  | 0.51 |  |  | CNS^− (CNS^− (indicative of low BBB permeation): Pe (10^−6 cm/s) < 2) |  |  |  |  |
